Assay results taken from patent US12582621B2, “Compositions and methods for delivering pharmaceutical agents” (Arizona Board of Regents on Behalf of the University of …, priority 2020, dated 2026).

Tested on: radiation-induced oral mucosistis
Assay: Fractionated radiation-induced oral mucositis in mice, topical suramin
Format: in vivo, C57BL/6J mice
Conditions: 8 Gy on 5 consecutive days, topical suramin 50 mg/ml solution by intraoral swab twice daily, assessed day 7
Experimental: The head and neck region of six-week-old male and female C57BL/6J mice (4-5 mice/group/sex) were exposed to collimated fractionated radiation (8 Gy on 5 consecutive days). Topically applied suramin (50 mg/ml solution) was applied on day 1 of radiation by intraoral swab and twice daily throughout the experimental period. On day 7, all mice were euthanized and tongues were assessed for development and extent of oral mucositis ulceration on the dorsal surface of the tongue using 1% toluidine blue. Epithelial erosion and ulceration were visible as a deep blue color and ulceration area was measured using NIH Image J software. Histopathological grading (0-4 scale) using an established scale was used to assess OM staging and epithelial thinning.

SMILES: Cc1ccc(C(=O)Nc2ccc(S(=O)(=O)O)c3cc(S(=O)(=O)O)cc(S(=O)(=O)O)c23)cc1NC(=O)c1cccc(NC(=O)Nc2cccc(C(=O)Nc3cc(C(=O)Nc4ccc(S(=O)(=O)O)c5cc(S(=O)(=O)O)cc(S(=O)(=O)O)c45)ccc3C)c2)c1 [suramin, Suramin]
- effect on radiation-induced oral mucositis: diminishes radiation-induced oral mucosistis
